# Paper doi:10.1101/2025.01.28.635286v2 (bioRxiv, 2025)
# Experiments:
# Type in all cases: cell-based, human
# phospho-IRS (serine 307) = experiment: Western blot of phospho-IRS in hCMEC/D3 monolayers; details: TNF-alpha 20 ng/mL, 24 h, immunoblot normalized to GAPDH, p<0.01
# hCMEC/D3 monolayers = experiment: Confocal microscopy of FITC-Aβ42 uptake in hCMEC/D3 monolayers; details: TNF-alpha 20 ng/mL
# [1] = tested on: phospho-cofilin (serine 3); experiment: Western blot of phospho-cofilin in hCMEC/D3 monolayers; details: TNF-alpha 20 ng/mL, 24 h, western blot normalized to GAPDH, p<0.05
# phospho-dynamin = experiment: Western blot of phospho-dynamin in hCMEC/D3 monolayers; details: TNF-alpha 20 ng/mL, 24 h, western blot normalized to GAPDH, p<0.05
substance,measurement,setting,value
tumor necrosis factor-alpha [TNF-alpha],increase in phospho-IRS expression (serine 307),phospho-IRS (serine 307),3 fold
same,FITC-Aβ42 fluorescence by confocal microscopy in comparison to control cells,hCMEC/D3 monolayers,increased FITC-Aβ42 fluorescence
same,decrease of phospho-cofilin expression compared to control cells,[1],approximately 2 fold
same,increase in phospho-dynamin levels compared to control cells,phospho-dynamin,~3 fold
